Test results published in PubChem BioAssay (NCI).
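Cultured in 96-well plates, cells were exposed to test compound for 48 hours across five concentrations. TGI is the concentration that stops growth completely.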

Tests used:
Test in all cases: NCI-60 cell line screen, 48 h
[1] = tested on: SR leukemia
[2] = tested on: SN12C renal
[3] = tested on: LXFL 529 NSCLC
[4] = tested on: NCI-H23 lung
[5] = tested on: ACHN renal
[6] = tested on: IGROV1 ovarian
[7] = tested on: OVCAR-5 ovarian
[8] = tested on: SNB-75 CNS
[9] = tested on: SK-MEL-5 melanoma
[10] = tested on: MALME-3M melanoma
[11] = tested on: UACC-257 melanoma
[12] = tested on: K-562 leukemia
[13] = tested on: A549 NSCLC
[14] = tested on: 786-0 renal
[15] = tested on: M19-MEL melanoma
[16] = tested on: RPMI-8226 leukemia
[17] = tested on: OVCAR-4 ovarian
[18] = tested on: OVCAR-3 ovarian
[19] = tested on: NCI-H522 lung
[20] = tested on: U251 CNS
[21] = tested on: SK-OV-3 ovarian
[22] = tested on: MOLT-4 leukemia
[23] = tested on: SK-MEL-28 melanoma
[24] = tested on: KM20L2 colon
[25] = tested on: SF-295 CNS
[26] = tested on: DMS 114 small cell lung
[27] = tested on: HCC-2998 colon
[28] = tested on: RXF 393 renal
[29] = tested on: NCI-H226 lung
[30] = tested on: TK-10 renal
[31] = tested on: HOP-92 NSCLC
[32] = tested on: HT29 colon
[33] = tested on: SNB-78 CNS
[34] = tested on: SF-268 CNS
[35] = tested on: EKVX NSCLC
[36] = tested on: COLO 205 colon
[37] = tested on: UO-31 renal
[38] = tested on: KM12 colon
[39] = tested on: DMS 273 small cell lung
[40] = tested on: HCT-116 colon
[41] = tested on: SW-620 colon
[42] = tested on: UACC-62 melanoma
[43] = tested on: SK-MEL-2 melanoma
[44] = tested on: SF-539 CNS
[45] = tested on: CAKI-1 renal
[46] = tested on: SNB-19 CNS
[47] = tested on: OVCAR-8 ovarian
[48] = tested on: HCT-15 colon
[49] = tested on: NCI-H460 lung
[50] = tested on: CCRF-CEM leukemia
[51] = tested on: HL-60(TB) leukemia
[52] = tested on: LOX IMVI melanoma
[53] = tested on: A498 renal
[54] = tested on: DLD-1 colon
[55] = tested on: XF 498 CNS
[56] = tested on: HOP-62 NSCLC
[57] = tested on: M14 melanoma

SMILES: O=c1[nH]c(C2CCCCC2)nc2cc(Cl)ccc12
- TGI [1]: > 100 µM
- TGI [2]: > 100 µM
- TGI [3]: > 100 µM
- TGI [4]: > 100 µM
- TGI [5]: > 100 µM
- TGI [6]: > 100 µM
- TGI [7]: > 100 µM
- TGI [8]: > 100 µM
- TGI [9]: > 100 µM
- TGI [10]: > 100 µM
- TGI [11]: > 100 µM
- TGI [12]: > 100 µM
- TGI [13]: > 100 µM
- TGI [14]: > 100 µM
- TGI [15]: > 100 µM
- TGI [16]: > 100 µM
- TGI [17]: > 100 µM
- TGI [18]: > 100 µM
- TGI [19]: > 100 µM
- TGI [20]: > 100 µM
- TGI [21]: > 100 µM
- TGI [22]: > 100 µM
- TGI [23]: > 100 µM
- TGI [24]: > 100 µM
- TGI [25]: > 100 µM
- TGI [26]: > 100 µM
- TGI [27]: > 100 µM
- TGI [28]: > 100 µM
- TGI [29]: > 100 µM
- TGI [30]: > 100 µM
- TGI [31]: 94.3 µM
- TGI [32]: > 100 µM
- TGI [33]: > 100 µM
- TGI [34]: > 100 µM
- TGI [35]: > 100 µM
- TGI [36]: > 100 µM
- TGI [37]: > 100 µM
- TGI [38]: > 100 µM
- TGI [39]: > 100 µM
- TGI [40]: > 100 µM
- TGI [41]: > 100 µM
- TGI [42]: > 100 µM
- TGI [43]: > 100 µM
- TGI [44]: > 100 µM
- TGI [45]: > 100 µM
- TGI [46]: > 100 µM
- TGI [47]: > 100 µM
- TGI [48]: > 100 µM

SMILES: CCC(/C=C/c1ccccc1)=N\N=C(\C=C\c1ccccc1)CC
- TGI [1]: > 100 µM
- TGI [2]: > 100 µM
- TGI [3]: > 100 µM
- TGI [49]: > 100 µM
- TGI [4]: > 100 µM
- TGI [5]: > 100 µM
- TGI [6]: > 100 µM
- TGI [7]: > 100 µM
- TGI [50]: > 100 µM
- TGI [8]: > 100 µM
- TGI [51]: > 100 µM
- TGI [9]: > 100 µM
- TGI [10]: > 100 µM
- TGI [52]: > 100 µM
- TGI [11]: > 100 µM
- TGI [12]: > 100 µM
- TGI [13]: > 100 µM
- TGI [14]: > 100 µM
- TGI [53]: > 100 µM
- TGI [15]: > 100 µM
- TGI [16]: > 100 µM
- TGI [17]: > 100 µM
- TGI [18]: > 100 µM
- TGI [19]: > 100 µM
- TGI [20]: > 100 µM
- TGI [21]: > 100 µM
- TGI [22]: > 100 µM
- TGI [23]: > 100 µM
- TGI [24]: > 100 µM
- TGI [25]: > 100 µM
- TGI [27]: > 100 µM
- TGI [29]: > 100 µM
- TGI [30]: > 100 µM
- TGI [32]: > 100 µM
- TGI [33]: > 100 µM
- TGI [34]: > 100 µM
- TGI [54]: > 100 µM
- TGI [55]: > 100 µM
- TGI [35]: > 100 µM
- TGI [36]: > 100 µM
- TGI [37]: > 100 µM
- TGI [38]: > 100 µM
- TGI [39]: > 100 µM
- TGI [40]: > 100 µM
- TGI [41]: > 100 µM
- TGI [42]: > 100 µM
- TGI [43]: > 100 µM
- TGI [56]: > 100 µM
- TGI [46]: > 100 µM
- TGI [47]: > 100 µM
- TGI [48]: > 100 µM
- TGI [57]: > 100 µM
